# Measurements as given in US8357653B2, “System and method for inhibiting cellular proliferation with tachykinins” (priority 2000, dated 2013).
# Where “and” joins values, the source holds several entries; their conditions need not be identical. Identical values can stand only once. Like-named read-outs stand apart in the source and are kept apart here. Ends that are not written are not given here. Peptide text beside a SMILES is read from it.
# How the values were obtained:
# [1] = system: Lewis lung carcinoma cells; experiment: in vivo tumorigenicity model, Lewis lung carcinoma in C57Bl/6 mice, intra-tumor injection; settings: for tumor growth inhibition: Cisplatin group
# Description: The inhibitory action of Sialokinin I and II, SEQ. ID. NO. 1 and NO. 2, against tumor tissue proliferation (Lewis lung carcinoma) was investigated. To test the efficacy of three different concentrations of peptide test articles in an in vivo tumorigenicity model using Lewis lung carcinoma cells.
# Lewis lung carcinoma cells were obtained from ATCC and cultured in monolayers in DMEM supplemented with 10% heat-inactivated FBS, 4 mM L-glutamine, 100 μg/ml streptomycin and 100 units/ml penicillin for two passage cycles at 37° C. in 95% air and 5% CO2. Cells were harvested from subconfluent cultures by 60-second exposure to trypsin/EDTA, washed in serum free medium and brought to the correct concentration of cells in PBS.
# On day 0, 35 female C57Bl/6 mice 6-8 weeks of age were shaved on the right lateral thorax and injected subcutaneously with 1.0×10^6 Lewis lung carcinoma cells. A total of 35 mice were injected so that 25 tumor-bearing mice with the correct tumor size could be used for the study. Tumors were allowed to develop for four days post cell injection at which time biweekly tumor measurements (L×W), in millimeters, were recorded for 3 weeks. […] The data are presented as mean tumor mass plotted over time.
# When tumors reached a size of 100-200 mg, 25 mice were selected and randomly sorted into five groups. The five groups of Lewis lung tumor bearing mice were used to test three different test article concentrations.
# The first group contained animals injected with the test article carrier as a control group. The control animals were injected with 50 μl intra-tumor injections of sterile saline and 1% bovine serum albumin (BSA), three times per week for a total of 5 doses. The control group contained mice that received the vehicle as a negative control.
# The second group contained animals treated with 6 mg/kg of Cisplatin (Platinol; Bristol-Myers Squibb Co.) as a positive control administered according to manufacture's specifications by intravenous tail vein injection, every fourth day for a total of 3 doses. The Cisplatin group contained mice that received Cisplatin as a positive control.
# The third group contained animals that received 5 μM of test article dissolved in sterile saline and 1% bovine serum albumin (BSA) injected intra-tumor with 50 μl injections, three times per week for a total of 5 doses.
# The fourth group contained animals that received 10 μM of test article dissolved in sterile saline and 1% bovine serum albumin (BSA) injected intra-tumor with 50 μl injections, three times per week for a total of 5 doses.
# The fifth group contained animals that received 100 μM of test article dissolved in sterile saline and 1% bovine serum albumin (BSA) injected intra-tumor with 50 μl injections, three times per week for a total of 5 doses.
# Injections began on the day that animals were randomly sorted into one of five groups. Animals in the control, 5 μM, 10 μM, and 100 μM groups were dosed every other workday with an intra-tumor subcutaneous injection for a total of 5 doses. Tumor size was measured and recorded twice weekly using calipers. Mice were examined twice weekly for morbidity, and any abnormal findings were recorded. When tumors reached a mean target size of 1000 mg in control mice the animals were euthanized and two mice from each group were randomly selected and sent to necropsy for tumor and tissue collection. Mice were photographed before harvesting tumors and major organs (heart, lung, liver, kidney, spleen, GI tract and brain). No mice died while on study.
# [2] = system: guinea pig ileum; settings: read-out: K0.5; cited from earlier work
# [3] = system: ASM cells; settings: cited from earlier work; for proliferative response in ASM cells: dose range of 10^−12 to 10^−6M
# [4] = system: spleen cell; settings: 25 μg/ml of salivary gland extract, cited from earlier work
# [5] = system: Lewis lung carcinoma cells; experiment: in vivo tumorigenicity model, Lewis lung carcinoma in immuno-compromised (nu/nu) mice, intravenous injection
# Description: To test the efficacy of different concentrations of the Sialokinin peptides, test articles, SEQ. ID. NO. 1 and NO. 2, in an in vivo tumorigenicity model, a study was conducted with Lewis lung carcinoma in immuno-compromised (nu/nu) mice. Lewis lung carcinoma cells were cultured in Dulbecco's Modified Eagles Medium (DMEM), supplemented with 4 mM L-glutamine, 0.1 mM non-essential amino acids, 10% heat inactivated fetal bovine serum (FBS), […] Gentamicin and 250 μg/ml Fungizone. Cells were cultured in 5% CO2 and 95% air at 37° C. Exponentially growing cells were harvested and washed twice in phosphate buffered saline (PBS) to remove any traces of trypsin or serum. The washed cells were suspended in Hanks Balanced Salt Solution (HBSS) for injection.
# Athymic nude mice were injected subcutaneously in the right lateral thorax with 10^4 Lewis lung carcinoma cells. A total of 38 mice were injected, with 33 tumor-bearing mice used in the study. When tumors reached a target window size of 100-200 mg, 33 tumor-bearing mice were randomly selected and sorted into one of three groups. Group 1 contained mice that received the test article carrier by an IV injection as a negative control. […]
# Tumor measurements were recorded three times a week using calipers. […] Clinical observations on each mouse were done twice weekly for signs of toxicity and morbidity and any abnormal findings were recorded. […]
# [6] = system: warts; experiment: human wart trial, subcutaneous injection into the wart; type: in vivo
# Description: A trial was conducted to observe the anti-proliferative action of Sialokinins, SEQ. ID. NO. 1 and NO. 2, in the treatment of warts in a human application. This trial, conducted by a dermatologist, involved four volunteer human subjects who received two (2) subcutaneous injections of Sialokinin I and Sialokinin II into the wart. Injections of 100 μl of 5 μM were administered subcutaneously to each volunteer.
# The warts chosen for this trial had been diagnosed as stable and thus any observable change in the size of the wart to the injections would be significant. […] Of the 3 patients, reductions in size of 19%, 79%, and 31% were observed. When no further treatments were administered, no further reductions were observed.
# [7] = two 100 μl injections of 5 μM into the wart
compound,measurement,setting,value
N.N.[Cl][Pt][Cl] [Cisplatin],body weight change,[1]; 6 mg/kg intravenous,significant weight loss
same,growth compared to control tumor growth,"[1]; 6 mg/kg intravenous, day 7",58%
same,growth compared to control tumor growth,"[1]; 6 mg/kg intravenous, day 10",93%
same,growth compared to control tumor growth,"[1]; 6 mg/kg intravenous, day 15",73%
same,tumor size compared to control group mice,"[1]; 6 mg/kg intravenous, p<0.05",significantly smaller tumors
same,tumor growth inhibition,[1]; day 7,42%
same,tumor growth inhibition,[1]; day 10,7%
same,tumor growth inhibition,[1]; day 15,27%
"CSCC[C@H](NC(=O)[C@H](CC(C)C)NC(=O)CNC(=O)[C@H](Cc1ccc(O)cc1)NC(=O)[C@H](Cc1ccccc1)NC(=O)[C@H](CCCCN)NC(=O)[C@H](CC(=O)O)NC(=O)CNC(=O)[C@@H](NC(=O)[C@@H](N)CC(=O)O)[C@@H](C)O)C(N)=O [Sialokinin II, Asp^1-Thr^2-Gly^3-Asp^4-Lys^5-Phe^6-Tyr^7-Gly^8-Leu^9-Met^10-NH2] (H-DTGDKFYGLM-NH2)",EC50,[2],5.07 nM
Arg^1-Pro^2-Lys^3-Pro^4-Gln^5-Gln^6-Phe^7-Phe^8-Gly^9-Leu^10-Met^11-NH2 [Substance P],EC50,[2],4.94 nM
same,concentration eliciting the maximum proliferative response,[3]; ASM cells,10^−4 M
same,ASM cell number,[3]; concentration range of 10^−14 to 10^−4M,dose-dependent increases in ASM cell number
Asn^1-Thr^2-Gly^3-Asp^4-Lys^5-Phe^6-Tyr^7-Gly^8-Leu^9-Met^10-NH2 (NTGDKFYGLM-NH2; listed as Aedes aegypti) [SK1],EC50,[2],6.58 nM
same,suppression of spleen cell proliferation,"[4]; stimulated with IL-2, antigen activated cells",39%
same,suppression of spleen cell proliferation,"[4]; stimulated with IL-2, naïve cells",66%
same,suppression of spleen cell proliferation,"[4]; stimulated with IL-4, antigen activated cells",27%
same,suppression of spleen cell proliferation,"[4]; stimulated with IL-4, naïve cells",39%
same,"necropsy, toxicity or tissue necrosis",[5]; 200 μl intravenous injection of 5 μM and 10 μM,no detectable toxicity or tissue necrosis
same,weight loss in study animals,"[5]; intravenous 5 μM and 10 μM, during the study period",No weight loss
same,side effects,"[6]; first clinical exposure, human",no side effects were detected
same,systemic symptoms,[6]; two 100 μl injections of 5 μM,no systemic symptoms were detected
same,toxicity in trial subjects,[6]; two 100 μl injections of 5 μM,no measured or observed toxicity
same,patients showing a reduction in wart size,[6]; [7],3 of 4
same,reduction in wart size (individual patients),[6]; [7],19% and 79% and 31%
Asp^1-Met^2-His^3-Asp^4-Phe^5-Phe^6-Val^7-Gly^8-Leu^9-Met^10-NH2 (DMHDFFVGLM-NH2) [NKB],proliferative response in ASM cells,[3],Neither NKA nor NKB induced significant proliferative responses
His^1-Lys^2-Thr^3-Asp^4-Ser^5-Phe^6-Val^7-Gly^8-Leu^9-Met^10-NH2 (HKTDSFVGLM-NH2) [NKA],proliferative response in ASM cells,[3],Neither NKA nor NKB induced significant proliferative responses
same,ASM cell count,[3]; highest administered concentration of 10^−4M,relatively modest increase in ASM cell count
